“Also recorded” adds a separate entry of the source. Like-named read-outs stand apart in the source and are kept apart here. Marks after values point to notes of the source that are not given here.
Key:
TA100 = assay: Ames test, Petri dish mixing method, TA100; format: cell-based; conditions: TA100 −S9, positive control, dose not given
Experimental: (§1) Test bacteria (TA97, TA98, TA100, TA102) were supplied by the Bureau of Food Inspection, Department of Health in Beijing. […] Using the Petri dish mixing method, two independent tests were carried out.

SLE mice = assay: T-lymphocyte populations in SLE mice under different treatments; format: in vivo
Experimental: Spleens, lymph nodes, and thymus glands were collected under sterile conditions from the DBA/2 or BALB/C mice. Lymphocytes were then isolated and washed with Hanks solution 3 times. Cells were stained with 0.5% trypan blue and examined for viability. The lymphocytes were then adjusted to the desired concentrations.
Kidney tissues were sampled and undergone morphologic analyses under light scope.
Statistical analyses and t test, were carried out using SPAAS 10.0 computer software.

TA98 = assay: Ames test, Petri dish mixing method, TA98; format: cell-based; conditions: TA98 −S9, positive control, dose not given
Experimental: as §1

TA97 = assay: Ames test, Petri dish mixing method, TA97; format: cell-based; conditions: TA97 −S9, positive control, dose not given
Experimental: as §1

NIH mice [1] = assay: Mouse sperm deformation test; format: in vivo; conditions: 0.04 g/kg, abdominal injections
Source text: 3. Sperm Deformation Test
Twenty five (25) NIH mice with body weights of 18-22 g, randomly divided into 5 groups and continuously force fed for 5 days (the Endoxan positive group received abdominal injections), were used in this test. Thirty five (35) days later, the animals were sacrificed and both testicles were taken out for the standard biopsy preparation and staining. Five thousand (5000) whole sperm from each group were examined under an oil immersion lens and the sperm deformation percentage was calculated.

NIH mice [2] = conditions: for No. of micronuclei: 10000 cells
Experimental: Test material: The GLSs were brown powders. After going through a 100 mesh sieve, 120 g of the samples were mixed with 300 mL distilled water (to give a concentration of 40 g/dL) and stirred for 15 min in a stirrer at 7000 rpm. They were then bottled, underwent disinfection and antiseptic treatments, and 1 mL of a pasty liquid was obtained, which was about 0.4 g of the samples. Direct gavage was carried out two times per day.
Mouse Bone Marrow Micronucleus Test:
Seventy (70) NIH mice with body weights of 20-23 g were used in this test. The mice were divided into 7 groups and testing was carried out according to the methods of the Toxicological Evaluation Procedures for Food Safety. Gavage was carried out twice, and 6 hrs after the second force feeding, the mice were sacrificed, and both of the femurs were taken out for the preparation of a biopsy, staining and examination under a microscope.

[3] = blood at 168 hours after the first dosing, daily oral, GLSs 0.8 g/kg/day, prednisolone solution 50 mL/kg/day

SMILES: [N-]=[N+]=[N-] [Sodium azide]
- colonies due to reverse mutation (TA100): >1500

SMILES: C[C@]12C=CC(=O)C=C1CC[C@@H]1[C@@H]2[C@@H](O)C[C@@]2(C)[C@H]1CC[C@]2(O)C(=O)CO [prednisolone]
- T %, Th %, Ts % and Th/Ts ratio compared with control groups (SLE mice; 168 hours after the first dosing): much better than those in the SLE control group; also recorded: improved the T cell counts in similar degree as those of GLSs
- T(%) (SLE mice; [3]): 51.30 ± 4.23%
- Th (%) (SLE mice; [3]): 31.44 ± 3.21%
- Th/Ts (SLE mice; [3]): 1.12 ± 0.31
- Ts (%) (SLE mice; [3]): 28.43 ± 3.12%

SMILES: CCN(CC)CCCC(C)Nc1c2ccc(Cl)cc2nc2ccc(OC)cc12 (centres unmarked) [Atabrine]
- colonies due to reverse mutation (TA98): >1433
- colonies due to reverse mutation (TA97): >1500

SMILES: O=P1(N(CCCl)CCCl)NCCCO1 (centres unmarked) [Endoxan]
- No of deformed sperm (count) (NIH mice [1]; 5000 sperm): 98
- Percentage deformation (NIH mice [1]; p < 0.01 vs other groups): 72.80**
- No. of micronuclei (NIH mice [2]; listed as printed '(0.06)' g/kg under Endoxan): 249
- Percentage of micronuclei (NIH mice [2]; listed as printed '(0.06)' g/kg under Endoxan, p < 0.001 vs other groups): 24.9** 0/00
- Percentage of micronuclei (NIH mice [2]; listed as printed '^ Endoxan'): 1.2 0/00
- No. of micronuclei (NIH mice [2]; listed as printed '^ Endoxan'): 12

From patent US6893641B2, “Ganoderma lucidum spores for treatment of autoimmune diseases” (priority 1999, dated 2005)
